This passage reports Ki, Ratio Ki and IC50 results from ChEMBL document CHEMBL4330140, “Novel human adenosine receptor antagonists based on the 7-amino-thiazolo[5,4-d]pyrimidine scaffold. Structural investigations at the 2-, 5- and 7-positions to enhance affinity and tune selectivity” (Bioorg Med Chem Lett, 2019).

Molecules are shown by their SMILES. Some results are limits rather than exact numbers.

One assay addresses T1, Adenosine receptor A3 (Homo sapiens, UniProt P0DMS8).
T1 sequence (P0DMS8 whole entry): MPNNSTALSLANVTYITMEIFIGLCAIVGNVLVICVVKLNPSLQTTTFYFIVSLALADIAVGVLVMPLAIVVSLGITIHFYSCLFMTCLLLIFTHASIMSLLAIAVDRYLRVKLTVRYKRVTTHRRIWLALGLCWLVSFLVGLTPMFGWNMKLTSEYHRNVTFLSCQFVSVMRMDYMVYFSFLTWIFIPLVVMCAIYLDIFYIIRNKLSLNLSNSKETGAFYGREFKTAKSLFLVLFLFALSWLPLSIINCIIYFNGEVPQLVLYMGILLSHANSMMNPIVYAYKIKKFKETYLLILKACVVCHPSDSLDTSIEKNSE
The assay is described as follows: Displacement of [3H]HEMADO from human adenosine A3 receptor expressed in CHO cells after 3 hrs by scintillation counting method. It counts as cell-based.

Assay [1] is filed under the species Homo sapiens. The assay is described as follows: Selectivity ratio of Ki for displacement of [3H]HEMADO from human adenosine A3 receptor expressed in CHO cells to Ki for displacement of [3H]NECA from human adenosine A2A receptor expressed in CHO cells. It counts as cell-based.
Assay [2] has as its target T2, Adenosine receptor A2a (Homo sapiens, UniProt P29274). Description: Antagonist activity at human adenosine A2A receptor expressed in CHO cells assessed as inhibition of NECA-induced increase in cAMP accumulation preincubated for 10 mins followed by NECA addition by GloSensor cAMP assay. It counts as functional, cell-based.
For assay [3], the target named is T2, Adenosine receptor A2a. The assay is described as follows: Displacement of [3H]NECA from human adenosine A2A receptor expressed in CHO cells after 3 hrs by scintillation counting method. It counts as cell-based.
The next assay deals with T3, Adenosine receptor A1 (Homo sapiens, UniProt P30542).
T3 sequence (P30542 whole entry): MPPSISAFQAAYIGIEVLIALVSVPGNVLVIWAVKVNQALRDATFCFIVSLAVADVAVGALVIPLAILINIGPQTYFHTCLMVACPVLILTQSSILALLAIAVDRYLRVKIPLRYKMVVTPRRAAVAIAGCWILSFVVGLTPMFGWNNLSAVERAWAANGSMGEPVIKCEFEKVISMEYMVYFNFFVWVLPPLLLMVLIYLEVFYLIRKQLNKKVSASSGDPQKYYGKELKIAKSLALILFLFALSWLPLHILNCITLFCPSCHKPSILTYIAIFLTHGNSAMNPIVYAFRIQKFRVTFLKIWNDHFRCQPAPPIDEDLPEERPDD
Description: Displacement of [3H]CCPA from human adenosine A1 receptor expressed in CHO cells after 3 hrs by scintillation counting method. It is filed as cell-based. (Displacement assays read how much labelled ligand stays bound in the presence of the test substance.)

The species entered for assay [4] is Homo sapiens. The assay is described as follows: Selectivity ratio of Ki for displacement of [3H]CCPA from human adenosine A1 receptor expressed in CHO cells to Ki for displacement of [3H]NECA from human adenosine A2A receptor expressed in CHO cells. It counts as cell-based.
The target in a further assay is T4, Adenosine receptor A2b (Homo sapiens, UniProt P29275).
T4 sequence (P29275 whole entry): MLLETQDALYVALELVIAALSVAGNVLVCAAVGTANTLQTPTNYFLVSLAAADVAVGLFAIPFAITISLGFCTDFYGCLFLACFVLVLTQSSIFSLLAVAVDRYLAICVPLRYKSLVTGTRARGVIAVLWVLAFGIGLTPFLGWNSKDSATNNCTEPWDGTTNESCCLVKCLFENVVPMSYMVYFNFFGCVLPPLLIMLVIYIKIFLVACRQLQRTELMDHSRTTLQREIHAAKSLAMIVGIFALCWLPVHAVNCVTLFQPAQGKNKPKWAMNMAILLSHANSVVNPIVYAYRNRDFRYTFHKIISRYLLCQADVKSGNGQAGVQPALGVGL
Description: Antagonist activity at human adenosine A2B receptor expressed in CHO cells assessed as inhibition of NECA-induced increase in cAMP accumulation preincubated for 10 mins followed by NECA addition by GloSensor cAMP assay. It counts as functional, cell-based. On the technique in general: Cyclic AMP is a second messenger, typically raised through Gs and lowered through Gi signalling.

T2 sequence (P29274 whole entry): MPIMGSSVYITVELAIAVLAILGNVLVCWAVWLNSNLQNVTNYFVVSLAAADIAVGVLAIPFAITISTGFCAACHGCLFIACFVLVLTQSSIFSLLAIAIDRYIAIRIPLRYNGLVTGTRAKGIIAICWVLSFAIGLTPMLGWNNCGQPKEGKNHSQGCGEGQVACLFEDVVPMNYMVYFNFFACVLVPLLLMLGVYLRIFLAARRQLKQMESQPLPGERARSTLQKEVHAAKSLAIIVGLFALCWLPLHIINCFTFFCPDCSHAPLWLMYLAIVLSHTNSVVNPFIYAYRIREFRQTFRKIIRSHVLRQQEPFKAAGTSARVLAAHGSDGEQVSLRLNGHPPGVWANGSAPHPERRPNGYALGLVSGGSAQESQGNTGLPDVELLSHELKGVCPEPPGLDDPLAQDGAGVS

As a reminder, the Ki is a dissociation constant, usually derived from enzyme kinetics or from competition with a known ligand. Usually IC50 stands for the point on the concentration scale where inhibition reaches its midpoint. On to `Nc1nc(-c2ccco2)nc2sc(-c3ccco3)nc12`, for which the Ki on Adenosine receptor A3 came out at 99 nM; on Adenosine receptor A2a [3], 3.4 nM; on Adenosine receptor A1, 69 nM. Also, the Ratio Ki stood at 29.1 in the assay listed under Homo sapiens [1] and 20.3 in the assay listed under Homo sapiens [4]. The IC50 on Adenosine receptor A2a [2] was 301 nM; on Adenosine receptor A2b, greater than 30000 nM.
